Experiments:
[1] = tested on: cultured human mast cells (CHMC); experiment: CHMC low cell density ionomycin activation: tryptase assay; type: cell-based
[2] = tested on: cultured human mast cells (CHMC); experiment: CHMC low cell density IgE activation: tryptase assay; type: cell-based; conditions: anti-IgE
Procedure, shortened: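 CHMC resuspended in pre-warmed MT buffer at 1000-1500 cells/well (donor-dependent) and preincubated 1 hr at 37° C, then stimulated with anti-IgE for 30 min at 37° C; unstimulated wells got MT alone. Supernatant tryptase activity read with tryptase substrate after 30 min at room temperature.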

SMILES	IC50 [1] [µM]	IC50 [2] [µM]
CNC(=O)COc1cc(Nc2ncc(F)c(Nc3ccc4c(c3)OCCO4)n2)ccc1OC [R926828, N4-(3,4-Ethylenedioxyphenyl)-5-fluoro-N2-[4-methoxy-3-(N-methylamino)carbonylmethyleneoxyphenyl]-2,4-pyrimidinediamine]	> 10	0.306
CNC(=O)COc1cccc(Nc2ncc(F)c(Nc3cc(OC)cc(C(F)(F)F)c3)n2)c1 [R926833, 5-Fluoro-N4-(3-methoxy-5-trifluoromethylphenyl)-N2-[3-(N-methylamino)carbonylmethyleneoxyphenyl]-2,4-pyrimidinediamine]	> 10	1.13
CNC(=O)COc1cccc(Nc2ncc(F)c(Nc3ccc(OC)c(O)c3)n2)c1 [R926834, 5-Fluoro-N4-(3-hydroxy-4-methoxyphenyl)-N2-[3-(N-methylamino)carbonylmethyleneoxyphenyl]-2,4-pyrimidinediamine]	> 10	0.145
CNC(=O)COc1cccc(Nc2ncc(F)c(Nc3ccc(OC)c(C(F)(F)F)c3)n2)c1 [R926835, 5-Fluoro-N4-(4-methoxy-3-trifluoromethylphenyl)-N2-[3-(N-methylamino)carbonylmethyleneoxyphenyl]-2,4-pyrimidinediamine]	> 10	0.296
OB(O)c1cccc(Nc2ncc(F)c(Nc3cccc(B(O)O)c3)n2)c1 [R926836, N2,N4-Bis(3-boronylphenyl)-5-fluoro-2,4-pyrimidinediamine]	> 10	10
OB(O)c1cccc(Nc2ncc(F)c(Nc3ccc4c(c3)OCCO4)n2)c1 [R926837, N2-(3-Boronylphenyl)-N4-(3,4-ethylenedioxyphenyl)-5-fluoro-2,4-pyrimidinediamine]	> 10	2.99
CNC(=O)COc1cccc(Nc2ncc(F)c(Nc3ccc(F)c(C(F)(F)F)c3)n2)c1 [R926838, 5-Fluoro-N4-(4-fluoro-3-trifluoromethylphenyl)-N2-[3-(N-methylamino)carbonylmethyleneoxyphenyl]-2,4-pyrimidinediamine]	> 10	0.583
CNC(=O)COc1cccc(Nc2ncc(F)c(Nc3cc(C)ccc3Cl)n2)c1 [R926840, N4-(2-Chloro-5-methylphenyl)-5-fluoro-N2-[3-(N-methylamino)carbonylmethyleneoxyphenyl]-2,4-pyrimidinediamine]	> 10	1.1
Oc1cccc(Nc2nc(Nc3cc(Br)cc(C(F)(F)F)c3)ncc2F)c1 [R926846, N2-(3-Bromo-5-trifluorophenyl)-5-fluoro-N4-(3-hydroxyphenyl)-2,4-pyrimidinediamine]	6.26	0.86
NC(=O)Cn1c(=O)oc2ccc(Nc3ncc(F)c(Nc4ccc5c(c4)OCCO5)n3)cc21 [R926847, N2-[5-(N-Aminocarbonylmethylene-2-oxo-1,3-oxazol-3(2H)-yl)phenyl]-N4-(3,4-ethylenedioxyphenyl)-5-fluoro-2,4-pyrimidinediamine]	6.26	1.48
CNC(=O)COc1cccc(Nc2ncc(F)c(Nc3cc(C(=O)OC)cc(C(F)(F)F)c3)n2)c1 [R926862, 5-Fluoro-N2-[3-(N-methylamino)carbonylmethyleneoxyphenyl]-N4-(3-methoxycarbonyl-5-trifluoromethylphenyl)-2,4-pyrimidinediamine]	> 10	0.774
CNC(=O)COc1cccc(Nc2ncc(F)c(Nc3ccc(OC(F)(F)F)cc3)n2)c1 [R926879, 5-Fluoro-N2-[3-(N-methylamino)carbonylmethyleneoxyphenyl]-N4-[4-trifluoromethoxyphenyl]-2,4-pyrimidinediamine]	> 10	0.397
CNC(=O)COc1cccc(Nc2ncc(F)c(Nc3ccc(Cl)c(-c4nc5ccccc5s4)c3)n2)c1 [R926900, N4-[3-(Benzothiazol-2-yl)-4-chlorophenyl]-5-fluoro-N2-[3-[(N-methylamino)carbonylmethyleneoxy]phenyl)-2,4-pyrimidinediamine]	> 10	> 10
CNC(=O)COc1cccc(Nc2ncc(F)c(Nc3ccc(C)c(OC)c3)n2)c1 [R926902, 5-Fluoro-N2-[3-[(N-methylamino)carbonylmethyleneoxy]phenyl]-N4-(3-methoxy-4-methylphenyl)-2,4-pyrimidinediamine]	4.59	1.37
CNC(=O)COc1cccc(Nc2ncc(F)c(Nc3ccc4c(c3)CNCC4)n2)c1 [R926914, 5-Fluoro-N4-(1,2,3,4-tetrahydroisoquin-7-yl)-N2-[3-[(N-methylamino)carbonylmethyleneoxy]phenyl]-2,4-pyrimidinediamine]	> 10	1.86
CNC(=O)C(C)(C)Oc1cccc(Nc2ncc(F)c(Nc3ccc4c(c3)OCCO4)n2)c1 [R926915, N4-(3,4-Ethylenedioxyphenyl)-5-fluoro-N2-[3-[(N-methylamino)carbonyl-1,1-dimethylmethyleneoxy]phenyl]-2,4-pyrimidinediamine]	> 10	1.71
CNC(=O)COc1cccc(Nc2ncc(F)c(Nc3cccc(OC(=O)N(C(=O)NC(C)C)C(C)C)c3)n2)c1 [R926916]	> 10	1.96

Results, then the compound that gave them:

IC50 [1] [µM]	IC50 [2] [µM]	SMILES
> 10	0.688	CNC(=O)COc1cc(Nc2ncc(F)c(Nc3cccc(O)c3)n2)ccc1OC [R926829, 5-Fluoro-N4-(3-hydroxyphenyl)-N2-[4-methoxy-3-(N-methylamino)carbonylmethyleneoxyphenyl]-2,4-pyrimidinediamine]
> 10	0.365	CNC(=O)COc1cccc(Nc2ncc(F)c(Nc3cccc(Cl)c3)n2)c1 [R926832, N4-(3-Chlorophenyl)-5-fluoro-N2-[3-(N-methylamino)carbonylmethyleneoxyphenyl]-2,4-pyrimidinediamine]
> 10	0.161	CNC(=O)COc1cccc(Nc2ncc(F)c(Nc3ccc(C)c(Cl)c3)n2)c1 [R926839, N4-(3-Chloro-4-methylphenyl)-5-fluoro-N2-[3-(N-methylamino)carbonylmethyleneoxyphenyl]-2,4-pyrimidinediamine]
> 10	1.1	Oc1cccc(Nc2nc(Nc3ccc(C(F)(F)F)c(Cl)c3)ncc2F)c1 [R926844, N2-(3-Chloro-4-trifluoromethylphenyl)-5-fluoro-N4-(3-hydroxyphenyl)-2,4-pyrimidinedimine]
> 10	> 10	CNC(=O)COc1cccc(Nc2ncc(F)c(Nc3cccc(-c4nnn[nH]4)c3)n2)c1 [R926855, 5-Fluoro-N2-[3-(N-methylamino)carbonylmethyleneoxyphenyl]-N4-[3-(tetrazol-5-yl)phenyl]-2,4-pyrimidinediamine]
> 10	0.638	CCOC(=O)Cc1nnc(-c2cccc(Nc3ncc(F)c(Nc4cccc(O)c4)n3)c2)o1 [R926874]
> 10	0.243	COC(=O)c1cc2ccc(Nc3ncc(F)c(Nc4cccc(O)c4)n3)cc2[nH]1 [R926903]
> 10	1.17	C=CCNC(=O)Oc1cccc(Nc2nc(Nc3cccc(OCC(=O)NC)c3)ncc2F)c1 [R926917, 5-Fluoro-N4-[3-[(N-allylamino)carbonyloxy]phenyl]-N2-[3-[(N-methylamino)carbonylmethyleneoxy]phenyl]-2,4-pyrimidinediamine]
